Results published in patent US10206399B2, “Herbicidal composition comprising uracil compound as active ingredient” (Dongbu Farm Hannong Co., Ltd., priority 2012, dated 2019).
Where two headings read alike, the source gives them in different places.

Assays:
Monochoria vaginalis = experiment: Paddy field farming herbicidal composition test, plant mortality; type: in vivo
Source text: (§1) X is % damage by uracil compound (a) of formula 1 at the rate of application of p kg/ha; Y is % damage by conventional herbicidal compound (b) at the rate of application of q kg/ha; and E is the expected damage caused by compounds (a) and (b) at a rate of application of p and q kg/ha.
(§2) The expected activity for a given combination of two herbicides can be calculated using equation 1 above.

Echinochloa crus [1] = experiment: as above; type: in vivo
Source text: as §1, §2

Echinochloa crus [2] = details: for plant mortality, measured value: Echinochloa crus
Source text: as §1, §2

Digitaria sanguinalis = details: for plant mortality, measured value: Digitaria sanguinalis
Source text: as §1, §2

Abutilon theophrasti = details: for plant mortality, measured value: Abutilon theophrasti
Source text: as §1, §2

Aeschynomene indica = details: for plant mortality, measured value: Aeschynomene indica
Source text: as §1, §2

Xanthium spinosum = details: for plant mortality, measured value: Xanthium spinosum
Source text: as §1, §2

[3] = Pontederia vaginalis, read-out: Monochoria vaginalis mortality (measured value)
[4] = Echinochloa, read-out: Echinochloa crus mortality, measured value

CCN(C(=O)SCc1ccccc1)C(C)C(C)C (centres unmarked) [Esprocarb]
pest or weed control at 500 g/ha (Monochoria vaginalis; [3]): 30% | pest or weed control at 500 g/ha (Echinochloa crus [1]; [4]): 20%

CN(C(=O)COc1nc2ccccc2s1)c1ccccc1 [Mefenacet]
pest or weed control at 200 g/ha (Monochoria vaginalis; [3]): 30% | pest or weed control at 200 g/ha (Echinochloa crus [1]; [4]): 30%

COc1nc(OC)nc(C(=O)c2cccc(F)c2N(C)S(=O)(=O)C(F)F)n1 [Triafamone]
Monochoria vaginalis mortality (measured value) (Monochoria vaginalis; 12.5 g/ha): 10 | Echinochloa crus mortality, measured value (Echinochloa crus [1]; 12.5 g/ha): 50

COP(=S)(OC)SCC(=O)N(c1ccc(Cl)cc1)C(C)(C)C [Anilofos]
pest or weed control at 75 g/ha (Monochoria vaginalis; [3]): 0% | pest or weed control at 75 g/ha (Echinochloa crus [1]; [4]): 50%

COc1cc(OC)nc(NC(=O)NS(=O)(=O)c2c(Cl)nc3ccccn23)n1 [Imazosulfuron]
pest or weed control at 18 g/ha (Monochoria vaginalis; Pontederia vaginalis, 18 g/ha, read-out: Monochoria vaginalis mortality (measured value)): 40% | pest or weed control at 18 g/ha (Echinochloa crus [1]; Echinochloa, 18 g/ha, read-out: Echinochloa crus mortality (measured value)): 20%

CCN(C(=O)n1nnn(-c2ccccc2Cl)c1=O)C1CCCCC1 [Fentrazamide]
pest or weed control at 50 g/ha (Monochoria vaginalis; [3]): 30% | pest or weed control at 50 g/ha (Echinochloa crus [1]; [4]): 20%

COc1cc(OC)nc(NC(=O)NS(=O)(=O)c2ncccc2OCC(F)(F)F)n1 [Trifloxysulfuron]
Data (measured value) Echinochloa crus (Echinochloa crus [2]; 1.25 g/ha): 8 | plant mortality, measured value (Echinochloa crus [2]; 1.25 g/ha): 8 | Data (measured value) Echinochloa crus (Echinochloa crus [2]; 5 g/ha): 56 | plant mortality, measured value (Echinochloa crus [2]; 5 g/ha): 56 | Data (measured value) Digitaria sanguinalis (Digitaria sanguinalis; 1.25 g/ha): 8 | plant mortality, measured value (Digitaria sanguinalis; 1.25 g/ha): 8 | Data (measured value) Digitaria sanguinalis (Digitaria sanguinalis; 5 g/ha): 51 | plant mortality, measured value (Digitaria sanguinalis; 5 g/ha): 51 | Data (measured value) Abutilon theophrasti (Abutilon theophrasti; 1.25 g/ha): 12 | plant mortality, measured value (Abutilon theophrasti; 1.25 g/ha): 12 | Data (measured value) Abutilon theophrasti (Abutilon theophrasti; 5 g/ha): 61 | plant mortality, measured value (Abutilon theophrasti; 5 g/ha): 61 | Data (measured value) Aeschynomene indica (Aeschynomene indica; 1.25 g/ha): 9 | plant mortality, measured value (Aeschynomene indica; 1.25 g/ha): 9 | Data (measured value) Aeschynomene indica (Aeschynomene indica; 5 g/ha): 58 | plant mortality, measured value (Aeschynomene indica; 5 g/ha): 58 | Data (measured value) Xanthium spinosum (Xanthium spinosum; 1.25 g/ha): 13 | plant mortality, measured value (Xanthium spinosum; 1.25 g/ha): 13 | Data (measured value) Xanthium spinosum (Xanthium spinosum; 5 g/ha): 62 | plant mortality, measured value (Xanthium spinosum; 5 g/ha): 62

CS(=O)(=O)c1ccc(C(=O)C2=C(Sc3ccccc3)C3CCC(C3)C2=O)c(Cl)c1 (centres unmarked) [Benzobicyclon]
Monochoria vaginalis mortality (measured value) (Monochoria vaginalis; 50 g/ha): 30 | Echinochloa crus mortality, measured value (Echinochloa crus [1]; 50 g/ha): 0

COc1cccc(N(C)C(=S)Oc2cccc(C(C)(C)C)c2)n1 [Pyributicarb]
pest or weed control at 150 g/ha (Monochoria vaginalis; Pontederia vaginalis, 150 g/ha, read-out: Monochoria vaginalis mortality (measured value)): 20% | pest or weed control at 150 g/ha (Echinochloa crus [1]; Echinochloa, 150 g/ha, read-out: Echinochloa crus mortality (measured value)): 20%

Cc1cc(Cl)ccc1OCC(=O)O [MCPA]
Data (measured value) Echinochloa crus (Echinochloa crus [2]; 75 g/ha): 0 | Data (measured value) Echinochloa crus (Echinochloa crus [2]; 150 g/ha): 0 | Data (measured value) Echinochloa crus (Echinochloa crus [2]; 300 g/ha): 0 | Data (measured value) Digitaria sanguinalis (Digitaria sanguinalis; 75 g/ha): 0 | Data (measured value) Digitaria sanguinalis (Digitaria sanguinalis; 150 g/ha): 0 | Data (measured value) Digitaria sanguinalis (Digitaria sanguinalis; 300 g/ha): 0 | Data (measured value) Abutilon theophrasti (Abutilon theophrasti; 75 g/ha): 11 | Data (measured value) Abutilon theophrasti (Abutilon theophrasti; 150 g/ha): 32 | Data (measured value) Abutilon theophrasti (Abutilon theophrasti; 300 g/ha): 64 | Data (measured value) Aeschynomene indica (Aeschynomene indica; 75 g/ha): 11 | Data (measured value) Aeschynomene indica (Aeschynomene indica; 150 g/ha): 24 | Data (measured value) Aeschynomene indica (Aeschynomene indica; 300 g/ha): 58 | Data (measured value) Xanthium spinosum (Xanthium spinosum; 75 g/ha): 8 | Data (measured value) Xanthium spinosum (Xanthium spinosum; 150 g/ha): 25 | Data (measured value) Xanthium spinosum (Xanthium spinosum; 300 g/ha): 59

COc1cc(OC)nc(NC(=O)NS(=O)(=O)Nc2ccccc2C(=O)C2CC2)n1 [Cyclosulfamuron]
pest or weed control at 11 g/ha (Monochoria vaginalis; Pontederia vaginalis, 11 g/ha, read-out: Monochoria vaginalis mortality (measured value)): 50% | pest or weed control at 11 g/ha (Echinochloa crus [1]; Echinochloa, 11 g/ha, read-out: Echinochloa crus mortality (measured value)): 30%
